Laboratory results from article PMC3108484 (Frontiers in Pharmacology, 2011).

Tests used:
rat Nav1.2 = test: Whole cell voltage-clamp, neuronal sodium current; details: 3 μM for 3 min, n = 3 cells
Human M3 = Human M3 (Homo sapiens, UniProt P20309); test: Radioligand binding: Human M3
Human NK3 = Human NK3 (Homo sapiens, UniProt P29371); test: Radioligand binding: Human NK3
Human AT1 = Human AT1 (Homo sapiens, UniProt P30556); test: Radioligand binding: Human AT1
Rat PACAP (PAC1) = Rat PACAP (PAC1) (Rattus norvegicus, UniProt P32215); test: Radioligand binding: Rat PACAP
[1] = target: Human norepinephrine transporter (Homo sapiens, UniProt P23975); test: Radioligand binding: Human norepinephrine transporter
Rat α1 (non-selective) = test: Radioligand binding: Rat α1; details: [3H]-prazosin 0.25 nM
Human D5 = Human D5 (Homo sapiens, UniProt P21918); test: Radioligand binding: Human D5
[2] = target: Human acetylcholinesterase (Homo sapiens, UniProt P22303); test: Enzyme inhibition: Human acetylcholinesterase
Rat α2 (non-selective) = test: Radioligand binding: Rat α2; details: [3H]-RX 821002 0.5 nM
[3] = target: Rat Ca2+ channel (L, verapamil site); test: Radioligand binding: Rat Ca2+ channel; details: [3H]-(−)D 888 0.5 nM
Rat NT (non-selective) = test: Radioligand binding: Rat NT; details: [125I]-Tyr3-neurotensin 0.05 nM
Human Y2 = Human Y2 (Homo sapiens, UniProt P49146); test: Radioligand binding: Human Y2
Human 5-HT6 = Human 5-HT6 (Homo sapiens, UniProt P50406); test: Radioligand binding: Human 5-HT6
Human V1a = Human V1a (Homo sapiens, UniProt P37288); test: Radioligand binding: Human V1a
K+ATP channel = K+ATP channel (Rattus norvegicus, UniProt Q09429); test: Radioligand binding: K+ATP channel; details: read-out: % Inhibition of specific binding (1 μM)
[4] = read-out: % Inhibition of specific binding (1 μM)

Sequence of Human acetylcholinesterase (P22303 32-614): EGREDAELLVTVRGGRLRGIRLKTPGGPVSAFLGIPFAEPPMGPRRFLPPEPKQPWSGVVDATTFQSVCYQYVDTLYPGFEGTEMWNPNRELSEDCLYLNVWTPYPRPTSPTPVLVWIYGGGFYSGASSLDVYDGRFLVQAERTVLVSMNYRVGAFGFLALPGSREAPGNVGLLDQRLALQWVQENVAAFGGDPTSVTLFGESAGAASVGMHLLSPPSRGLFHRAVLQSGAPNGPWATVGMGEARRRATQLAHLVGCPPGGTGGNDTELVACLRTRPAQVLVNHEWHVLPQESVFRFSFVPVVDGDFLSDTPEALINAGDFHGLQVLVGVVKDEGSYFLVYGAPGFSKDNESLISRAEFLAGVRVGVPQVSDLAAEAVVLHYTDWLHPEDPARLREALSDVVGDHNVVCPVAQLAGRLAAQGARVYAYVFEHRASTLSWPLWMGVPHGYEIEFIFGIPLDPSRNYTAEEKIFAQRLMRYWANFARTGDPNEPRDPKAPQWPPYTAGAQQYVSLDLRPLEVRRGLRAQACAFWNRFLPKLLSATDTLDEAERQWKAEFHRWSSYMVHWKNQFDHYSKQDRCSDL
Sequence of Human norepinephrine transporter (P23975 whole entry): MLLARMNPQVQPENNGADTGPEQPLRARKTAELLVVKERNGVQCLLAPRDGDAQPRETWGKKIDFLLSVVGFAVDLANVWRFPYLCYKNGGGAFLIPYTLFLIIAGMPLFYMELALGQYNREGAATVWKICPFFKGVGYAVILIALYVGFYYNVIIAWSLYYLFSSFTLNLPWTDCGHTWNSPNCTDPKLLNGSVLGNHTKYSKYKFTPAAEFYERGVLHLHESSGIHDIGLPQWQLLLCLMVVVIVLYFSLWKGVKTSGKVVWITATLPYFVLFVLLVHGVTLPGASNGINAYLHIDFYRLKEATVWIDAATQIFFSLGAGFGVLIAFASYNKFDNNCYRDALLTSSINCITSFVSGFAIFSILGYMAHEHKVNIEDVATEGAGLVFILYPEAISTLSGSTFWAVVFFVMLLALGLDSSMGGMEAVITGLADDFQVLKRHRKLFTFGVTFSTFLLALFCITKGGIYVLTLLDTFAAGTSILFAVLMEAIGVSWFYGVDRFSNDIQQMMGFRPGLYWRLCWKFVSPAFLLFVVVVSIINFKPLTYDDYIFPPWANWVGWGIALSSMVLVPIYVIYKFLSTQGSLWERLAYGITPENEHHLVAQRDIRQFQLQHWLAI
Sequence of Rat PACAP (PAC1) (P32215 20-523): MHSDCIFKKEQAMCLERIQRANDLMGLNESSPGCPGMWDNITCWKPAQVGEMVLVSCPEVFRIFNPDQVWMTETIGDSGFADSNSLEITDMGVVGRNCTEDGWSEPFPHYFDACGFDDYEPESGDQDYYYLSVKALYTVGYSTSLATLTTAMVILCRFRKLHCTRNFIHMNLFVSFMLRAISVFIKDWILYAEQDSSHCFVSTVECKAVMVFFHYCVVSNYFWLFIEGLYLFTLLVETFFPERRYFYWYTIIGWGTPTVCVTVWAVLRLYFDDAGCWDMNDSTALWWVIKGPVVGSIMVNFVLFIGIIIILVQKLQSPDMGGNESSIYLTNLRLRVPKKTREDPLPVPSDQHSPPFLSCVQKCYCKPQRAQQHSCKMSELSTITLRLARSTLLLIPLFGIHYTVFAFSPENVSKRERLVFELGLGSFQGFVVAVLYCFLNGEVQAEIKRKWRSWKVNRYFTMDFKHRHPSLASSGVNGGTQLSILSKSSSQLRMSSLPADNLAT
Sequence of Human AT1 (P30556 whole entry): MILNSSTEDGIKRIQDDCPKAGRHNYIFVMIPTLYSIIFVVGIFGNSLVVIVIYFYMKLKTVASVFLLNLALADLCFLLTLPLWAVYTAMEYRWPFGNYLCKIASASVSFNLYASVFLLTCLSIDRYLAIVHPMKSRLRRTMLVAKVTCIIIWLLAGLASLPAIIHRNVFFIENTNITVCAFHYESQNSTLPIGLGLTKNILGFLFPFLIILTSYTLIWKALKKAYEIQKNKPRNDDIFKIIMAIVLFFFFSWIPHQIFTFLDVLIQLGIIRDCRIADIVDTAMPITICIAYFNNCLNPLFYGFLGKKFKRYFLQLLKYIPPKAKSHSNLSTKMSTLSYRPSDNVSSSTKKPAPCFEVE
Sequence of Human V1a (P37288 whole entry): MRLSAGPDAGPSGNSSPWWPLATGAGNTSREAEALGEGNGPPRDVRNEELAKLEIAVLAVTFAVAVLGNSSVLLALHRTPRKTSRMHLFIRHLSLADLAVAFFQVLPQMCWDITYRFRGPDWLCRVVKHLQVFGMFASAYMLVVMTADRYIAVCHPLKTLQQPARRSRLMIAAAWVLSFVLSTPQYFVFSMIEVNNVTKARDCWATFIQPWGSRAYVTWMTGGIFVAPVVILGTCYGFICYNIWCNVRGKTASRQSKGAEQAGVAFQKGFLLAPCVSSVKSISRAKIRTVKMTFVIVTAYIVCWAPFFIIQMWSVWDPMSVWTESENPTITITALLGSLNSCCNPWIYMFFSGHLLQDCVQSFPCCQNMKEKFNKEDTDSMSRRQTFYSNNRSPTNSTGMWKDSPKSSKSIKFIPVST
Sequence of Human NK3 (P29371 whole entry): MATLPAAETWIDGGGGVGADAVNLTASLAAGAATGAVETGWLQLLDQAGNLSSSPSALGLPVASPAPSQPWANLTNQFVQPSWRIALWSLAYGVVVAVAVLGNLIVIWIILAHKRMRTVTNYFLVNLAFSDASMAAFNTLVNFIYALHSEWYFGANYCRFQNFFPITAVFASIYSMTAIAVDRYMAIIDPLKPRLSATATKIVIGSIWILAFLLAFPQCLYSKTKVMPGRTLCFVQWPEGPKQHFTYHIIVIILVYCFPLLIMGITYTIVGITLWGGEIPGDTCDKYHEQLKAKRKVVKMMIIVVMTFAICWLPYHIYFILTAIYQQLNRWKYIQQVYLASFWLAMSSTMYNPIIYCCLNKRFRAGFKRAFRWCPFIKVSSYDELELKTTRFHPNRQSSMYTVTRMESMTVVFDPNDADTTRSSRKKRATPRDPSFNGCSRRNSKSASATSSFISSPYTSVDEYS
Sequence of Human Y2 (P49146 whole entry): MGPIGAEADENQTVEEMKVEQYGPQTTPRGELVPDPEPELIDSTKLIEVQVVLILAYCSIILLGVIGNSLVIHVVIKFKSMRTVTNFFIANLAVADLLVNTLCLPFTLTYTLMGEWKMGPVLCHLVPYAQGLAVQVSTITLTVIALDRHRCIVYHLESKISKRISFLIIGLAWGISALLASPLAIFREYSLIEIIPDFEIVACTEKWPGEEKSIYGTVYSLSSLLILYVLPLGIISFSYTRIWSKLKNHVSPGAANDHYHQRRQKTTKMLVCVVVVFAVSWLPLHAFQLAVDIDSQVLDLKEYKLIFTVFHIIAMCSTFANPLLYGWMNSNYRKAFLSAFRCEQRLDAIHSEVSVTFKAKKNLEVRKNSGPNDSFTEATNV
Sequence of Human 5-HT6 (P50406 whole entry): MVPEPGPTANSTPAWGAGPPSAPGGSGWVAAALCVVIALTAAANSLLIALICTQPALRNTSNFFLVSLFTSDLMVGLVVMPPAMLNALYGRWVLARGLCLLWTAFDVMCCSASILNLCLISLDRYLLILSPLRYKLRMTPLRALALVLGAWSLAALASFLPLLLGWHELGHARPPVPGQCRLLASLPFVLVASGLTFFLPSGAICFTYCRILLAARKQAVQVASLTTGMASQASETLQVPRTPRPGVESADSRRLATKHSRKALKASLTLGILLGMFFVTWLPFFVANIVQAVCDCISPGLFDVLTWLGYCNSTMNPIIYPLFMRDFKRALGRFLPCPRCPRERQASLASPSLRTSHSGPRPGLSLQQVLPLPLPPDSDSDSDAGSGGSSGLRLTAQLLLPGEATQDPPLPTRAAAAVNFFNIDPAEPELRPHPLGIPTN
Sequence of Human D5 (P21918 whole entry): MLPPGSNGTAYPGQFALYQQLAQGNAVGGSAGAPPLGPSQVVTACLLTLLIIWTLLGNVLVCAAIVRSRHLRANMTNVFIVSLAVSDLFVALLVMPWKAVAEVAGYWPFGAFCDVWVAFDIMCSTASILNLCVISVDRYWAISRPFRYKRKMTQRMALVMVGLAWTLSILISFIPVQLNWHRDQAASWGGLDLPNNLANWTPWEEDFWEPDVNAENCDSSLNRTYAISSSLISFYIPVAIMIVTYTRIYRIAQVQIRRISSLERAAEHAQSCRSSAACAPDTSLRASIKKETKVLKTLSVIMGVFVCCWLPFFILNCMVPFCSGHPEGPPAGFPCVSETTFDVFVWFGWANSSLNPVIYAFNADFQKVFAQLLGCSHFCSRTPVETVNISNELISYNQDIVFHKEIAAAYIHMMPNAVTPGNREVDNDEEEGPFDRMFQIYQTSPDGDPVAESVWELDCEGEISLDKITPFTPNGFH
Sequence of Human M3 (P20309 whole entry): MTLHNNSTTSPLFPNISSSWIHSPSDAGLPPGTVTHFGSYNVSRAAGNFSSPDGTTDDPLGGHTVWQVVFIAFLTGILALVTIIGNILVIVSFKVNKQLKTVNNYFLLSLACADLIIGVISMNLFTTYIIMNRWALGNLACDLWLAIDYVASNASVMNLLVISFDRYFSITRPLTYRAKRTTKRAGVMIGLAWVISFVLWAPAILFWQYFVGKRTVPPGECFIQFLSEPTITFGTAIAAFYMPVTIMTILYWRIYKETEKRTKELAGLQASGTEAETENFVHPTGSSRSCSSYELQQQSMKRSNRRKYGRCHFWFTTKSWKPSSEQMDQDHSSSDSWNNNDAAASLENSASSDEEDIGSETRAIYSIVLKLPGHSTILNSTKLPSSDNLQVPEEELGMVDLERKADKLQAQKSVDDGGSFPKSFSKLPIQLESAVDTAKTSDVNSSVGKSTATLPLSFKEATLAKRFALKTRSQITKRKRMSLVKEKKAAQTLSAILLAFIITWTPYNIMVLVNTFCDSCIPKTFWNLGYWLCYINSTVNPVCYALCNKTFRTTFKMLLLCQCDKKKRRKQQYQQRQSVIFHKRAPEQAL

COC(=O)N1CCC(CN2CCC(CNC(=O)c3cccc4[nH]c(C(C)C)nc34)CC2)CC1 [TD-8954, 4-(4-{[(2-isopropyl-1H-benzoimidazole-4-carbonyl)amino]methyl}-piperidin-1-ylmethyl)piperidine-1-carboxylic acid methyl ester]
effect on magnitude of inward rat Nav1.2a sodium current (rat Nav1.2): no effect
Ki (Human M3): > 10000 nM
Ki (Human NK3): > 1000 nM
inhibition at 1 µM (Human NK3; [4]): -3%
Ki (Human AT1): > 1000 nM
inhibition at 1 µM (Human AT1; [4]): 2%
Ki (Rat PACAP (PAC1)): > 1000 nM
inhibition at 1 µM (Rat PACAP (PAC1); [4]): -3%
Ki [1]: > 1000 nM
inhibition at 1 µM [1, 4]: 6%
pKi (Rat α1 (non-selective)): <6
% Inhibition of specific binding (1 μM) (Rat α1 (non-selective); TD-8954 1 μM): −1%
Ki (Human D5): > 1000 nM
IC50 [2]: > 1000 nM
inhibition at 1 µM ([2]; read-out: % Inhibition of control (1 μM)): 2%
pKi (Rat α2 (non-selective)): <6
pKi [3]: <6
pKi (Rat NT (non-selective)): <6
% Inhibition of specific binding (1 μM) (Rat NT (non-selective); TD-8954 1 μM): 4%
Ki (Human Y2): > 1000 nM
inhibition at 1 µM (Human Y2; [4]): -5%
Ki (Human 5-HT6): > 1000 nM
Ki (Human V1a): > 1000 nM
inhibition at 1 µM (Human V1a; [4]): 1%
inhibition at 1 µM (K+ATP channel): 5%
